What follows are compounds tested against T1, full-length human Mineralocorticoid Receptor (MR) (Homo sapiens, UniProt P08235) (assay: human MR NH Pro assay (PathHunter Protein:Protein interaction assay), MR antagonist activity). Settings: PathHunter CHO-K1 cells overexpressing human MR; aldosterone about 0.3 nM; 6 hours at 37° C.; luminescence; read-out: Primary Assay IP rating (IP = inflection point for a given dose-response titration curve).
T1 construct: host or cells: PathHunter CHO-K1 cells
T1 sequence (P08235 1-984): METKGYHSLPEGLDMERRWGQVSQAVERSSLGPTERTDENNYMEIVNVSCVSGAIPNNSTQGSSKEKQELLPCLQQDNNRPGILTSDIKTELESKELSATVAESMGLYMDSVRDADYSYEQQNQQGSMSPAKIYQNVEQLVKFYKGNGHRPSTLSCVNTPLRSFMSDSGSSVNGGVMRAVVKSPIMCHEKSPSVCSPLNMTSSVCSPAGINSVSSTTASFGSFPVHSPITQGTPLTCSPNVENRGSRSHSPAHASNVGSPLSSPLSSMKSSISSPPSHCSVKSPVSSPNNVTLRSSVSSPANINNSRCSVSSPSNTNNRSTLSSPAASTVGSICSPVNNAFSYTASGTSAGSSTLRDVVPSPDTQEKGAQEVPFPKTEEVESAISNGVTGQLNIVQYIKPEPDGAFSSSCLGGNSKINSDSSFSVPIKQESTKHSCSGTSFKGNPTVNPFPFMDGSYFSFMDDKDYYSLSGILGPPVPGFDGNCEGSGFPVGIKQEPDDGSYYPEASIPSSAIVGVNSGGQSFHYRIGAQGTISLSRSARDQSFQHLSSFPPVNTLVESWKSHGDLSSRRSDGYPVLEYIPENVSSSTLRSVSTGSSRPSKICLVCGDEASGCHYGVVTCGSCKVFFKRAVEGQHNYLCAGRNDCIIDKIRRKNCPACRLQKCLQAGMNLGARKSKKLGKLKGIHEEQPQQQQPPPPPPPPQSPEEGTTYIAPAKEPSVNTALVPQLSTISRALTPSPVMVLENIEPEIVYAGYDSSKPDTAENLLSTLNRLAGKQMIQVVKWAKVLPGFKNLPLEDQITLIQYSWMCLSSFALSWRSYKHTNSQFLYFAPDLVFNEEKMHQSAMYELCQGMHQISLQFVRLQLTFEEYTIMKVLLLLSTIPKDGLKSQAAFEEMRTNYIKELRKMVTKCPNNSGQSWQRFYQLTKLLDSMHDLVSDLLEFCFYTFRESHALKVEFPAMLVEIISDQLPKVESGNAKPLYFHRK
Assay type: cell-based
Source text: The activity of the compounds of the present invention regarding mineralocorticoid receptor antagonism can be evaluated using the following assay.
Assessment of MR Potency in HMR NH Pro Assay
The human MR NH Pro assay is a commercially available PathHunter™ Protein:Protein interaction assay (DiscoveRx; http://www.discoverx.com/nhrs/prod-nhrs.php) that measures the ability of compounds to antagonize full-length human Mineralocorticoid Receptor (MR) binding to a coactivator peptide.
6. Test compounds are titrated starting at 4.4 mM, 10-point titration in 1:3 dilution.
3. Add 5 μL 6× agonist (final aldosterone concentration should be about 0.3 nM to about 1.0 nM) to all wells (using the PlateMate Plus.)
• (ThermoFisher) (except those wells in columns 23 and 24) 4. Add 5 uL of assay media to all wells in column 23 and 24. 5. Incubate 6 hrs at 37° C., 5% CO2. 6. Add 15 uL 3× DiscoveRx detection reagent to each well. 7. Incubate 1 hour at room temperature (keep plates stored in the dark). 8. Read plates on Envision (PerkinElmer) luminesence plate reader and analyze using ADA.

IC50	Compound
100 to 500 nM	CS(=O)(=O)Nc1cccc2c1ccn2C(CC#N)(C(=O)NCC(F)(F)F)c1ccc(Cl)cc1 (centres unmarked) [Compound 55, 2-(4-chlorophenyl)-3-cyano-2-{4-[(methylsulfonyl)amino]-1H-indol-1-yl}-N-(2,2,2-trifluoroethyl)propanamide]
< 100 nM	N-(6-fluoro-1-(2-hydroxy-3-(4-(trfluoromethyl)phenyl)pentan-3-yl)-1H-indazol-4-yl)methanesulfonamide [Compound 112]
< 100 nM	CCC(c1ccc(C(F)(F)F)cc1)(C(C)O)n1ccc2c(NS(C)(=O)=O)cccc21 (single isomer, unassigned) [Compound 113, N-(1-(2-hydroxy-3-(4-(trifluoromethyl)phenyl)pentan-3-yl)-1H-indol-4-yl)methanesulfonamide]
100 to 500 nM	CCC(C(C)=O)(c1ccc(C(F)(F)F)cc1)n1ncc2c(NS(C)(=O)=O)cccc21 (single isomer, unassigned) [Compound 104, N-(1-(2-oxo-3-(4-(trifluoromethyl)phenyl)pentan-3-yl)-1H-indazol-4-yl)methanesulfonamide]
< 100 nM	CC[C@](C#N)(c1ccc(Cl)cc1)n1ccc2c(NS(C)(=O)=O)cccc21 [Compound 5a, (R)—N-{1-[1-(4-chlorophenyl)-1-cyanopropyl]-1H-indol-4-yl}methanesulfonamide]
< 100 nM	CCC(c1ccc(C(F)(F)F)cc1)(C(C)O)n1ncc2c(NS(C)(=O)=O)cccc21 (single isomer, unassigned) [Compound 115, N-(1-(2-hydroxy-3-(4-(trifluoromethyl)phenyl)pentan-3-yl)-1H-indazol-4-yl)methanesulfonamide]
< 100 nM	CCC(c1ccc(Cl)cc1)(C1CC1C#N)n1ncc2c(NS(C)(=O)=O)cccc21 (centres unmarked) [Compound 120, N-(1-(1-(4-chlorophenyl)-1-(2-cyanocyclopropyl)propyl)-1H-indazol-4-yl)methanesulfonamide]
< 100 nM	CCC(c1ccc(Cl)cc1)(c1noc(-c2ccc(Cl)cc2)n1)n1ccc2c(NS(C)(=O)=O)cccc21 (centres unmarked) [Compound 60, N-(1-{1-(4-chlorophenyl)-1-[5-(4-chlorophenyl)-1,2,4-oxadiazol-3-yl]propyl}-1H-indol-4-yl)methanesulfonamide]
< 100 nM	CCC(C(=O)NCC#N)(c1ccc(Cl)cc1)n1ccc2c(NS(C)(=O)=O)cccc21 (centres unmarked) [Compound 149, 2-(4-chlorophenyl)-N-(cyanomethyl)-2-(4-(methylsulfonamido)-1H-indol-1-yl)butanamide]
100 to 500 nM	CCC(C(C)=O)(c1ccc(C(F)(F)F)cc1)n1ccc2c(NS(C)(=O)=O)cccc21 (single isomer, unassigned) [Compound 102, N-(1-(2-oxo-3-(4-(trifluoromethyl)phenyl)pentan-3-yl)-1H-indol-4-yl)methanesulfonamide]
100 to 500 nM	C=CC(CC)(c1ccc(Cl)cc1)n1ccc2c(NS(C)(=O)=O)cccc21 (centres unmarked) [Compound 175, N-(1-(3-(4-chlorophenyl)pent-1-en-3-yl)-1H-indol-4-yl)methanesulfonamide]
100 to 500 nM	CCC(C(C)=O)(c1ccc(Cl)cc1)n1ncc2c(NS(C)(=O)=O)cccc21 (single isomer, unassigned) [Compound 101, N-(1-(3-(4-chlorophenyl)-2-oxopentan-3-yl)-1H-indazol-4-yl)methanesulfonamide]
< 100 nM	CCC(c1ccc(Cl)cc1)(C(C)O)n1ccc2c(NS(C)(=O)=O)cc(F)cc21 (single isomer, unassigned) [Compound 111, N-(1-(3-(4-chlorophenyl)-2-hydroxypentan-3-yl)-6-fluoro-1H-indol-4-yl)methanesulfonamide]
< 100 nM	CCC(C(=O)NCC#N)(c1ccc(Cl)cc1)n1ccc2c(NS(C)(=O)=O)cccc21 (centres unmarked) [Compound 51, 2-(4-chlorophenyl)-N-(cyanomethyl)-2-{4-[(methylsulfonyl)amino]-1H-indol-1-yl}butanamide]
500 to 5000 nM	COC(=O)C(c1ccc(F)cc1Cl)n1ccc2cc(F)ccc21 (centres unmarked) [Compound 13, methyl (2-chloro-4-fluorophenyl)(5-fluoro-1H-indol-1-yl)acetate]
100 to 500 nM	CCC(CCC#N)(c1ccc(Cl)cc1)n1ncc2c(NS(C)(=O)=O)cccc21 (single isomer, unassigned) [Compound 137, N-(1-(3-(4-chlorophenyl)-1-cyanopentan-3-yl)-1H-indazol-4-yl)methanesulfonamide]
100 to 500 nM	CCC(c1ccc(Cl)cc1)(c1nnc(-c2ccc(F)cc2)o1)n1ccc2c(NS(C)(=O)=O)cccc21 (centres unmarked) [Compound 72, N-(1-{1-(4-chlorophenyl)-1-[5-(4-fluorophenyl)-1,3,4-oxadiazol-2-yl]propyl}-1H-indol-4-yl)methanesulfonamide]
< 100 nM	CCC(c1ccc(Cl)cc1)(n1ncc2c(NS(C)(=O)=O)cccc21)C(C)(C)O (single isomer, unassigned) [Compound 92, N-(1-(3-(4-chlorophenyl)-2-hydroxy-2-methylpentan-3-yl)-1H-indazol-4-yl)methane sulfonamide]
100 to 500 nM	CCC(C#N)(c1ccc(Cl)cc1)n1ccc2c(NS(=O)(=O)CC)cccc21 (centres unmarked) [Compound 178, N-(1-(1-(4-chlorophenyl)-1-cyanopropyl)-1H-indol-4-yl)ethanesulfonamide]
< 100 nM	CCC(CCOC)(c1ccc(Cl)cc1)n1ccc2c(NS(C)(=O)=O)cccc21 (centres unmarked) [Compound 165, N-(1-(3-(4-Chlorophenyl)-1-methoxypentan-3-yl)-1H-indol-4-yl)methanesulfonamide]
< 100 nM	CCC(CCC#N)(c1ccc(Cl)cc1)n1ncc2c(NS(C)(=O)=O)cc(F)cc21 (centres unmarked) [Compound 145, N-(1-(3-(4-chlorophenyl)-1-cyanopentan-3-yl)-6-fluoro-1H-indazol-4-yl)methanesulfonamide]
100 to 500 nM	CCC(/C=C/C#N)(c1ccc(Cl)cc1)n1ncc2c(N)cccc21 (centres unmarked) [Compound 133, (E)-4-(4-amino-1H-indazol-1-yl)-4-(4-chlorophenyl)hex-2-enenitrile]
100 to 500 nM	CCNC(=O)C(CC)(c1ccc(Cl)cc1)n1ccc2c(NS(C)(=O)=O)cccc21 (centres unmarked) [Compound 46, 2-(4-chlorophenyl)-N-ethyl-2-{4-[(methylsulfonyl)amino]-1H-indol-1-yl}butanamide]
< 100 nM	CCC(CCC#N)(c1ccc(C(F)(F)F)cc1)n1ncc2c(NS(C)(=O)=O)cccc21 (single isomer, unassigned) [Compound 141, N-(1-(1-cyano-3-(4-(trifluoromethyl)phenyl)pentan-3-yl)-1H-indazol-4-yl)methanesulfonamide]
< 100 nM	CCC(COC)(c1ccc(Cl)cc1)n1ccc2c(NS(C)(=O)=O)cccc21 (single isomer, unassigned) [Compound 96, N-(1-(2-(4-chlorophenyl)-1-methoxybutan-2-yl)-1H-indol-4-yl)methanesulfonamide]
< 100 nM	CCC(c1ccc(Cl)cc1)(n1ccc2c(NS(C)(=O)=O)cc(F)cc21)C(C)(C)O (single isomer, unassigned) [Compound 90, N-(1-(3-(4-chlorophenyl)-2-hydroxy-2-methylpentan-3-yl)-6-fluoro-1H-indol-4-yl)methane sulfonamide]
< 100 nM	CCC(C(C)=O)(c1ccc(Cl)cc1)n1ccc2c(NS(C)(=O)=O)cccc21 (centres unmarked) [Compound 99, N-(1-(3-(4-chlorophenyl)-2-oxopentan-3-yl)-1H-indol-4-yl)methanesulfonamide]
< 100 nM	CCC(C(C)=O)(c1ccc(Cl)cc1)n1ccc2c(NS(C)(=O)=O)cc(F)cc21 (centres unmarked) [Compound 98, N-(1-(3-(4-chlorophenyl)-2-oxopentan-3-yl)-6-fluoro-1H-indol-4-yl)methanesulfonamide]
100 to 500 nM	CCC(C(=O)OC)(c1ccc(Cl)cc1)n1ncc2c(NS(C)(=O)=O)cccc21 (centres unmarked) [Compound 32, Methyl 2-(4-chlorophenyl)-2-{4-[(methylsulfonyl)amino]-1H-indazol-1-yl}butanoate]
